# Measurements taken from paper PMC9330922, “Genomewide Analysis and Biological Characterization of Cathelicidins with Potent Antimicrobial Activity and Low Cytotoxicity from Three Bat Species” (Antibiotics, 2022).
# Structures can show the parent of a compound that is named as a salt. Where two headings read alike, the source gives them in different places. No end group written: not given here.
# Assays:
# [1] = system: Bacillus cereus ATCC 10876; assay: microbe, parasite or virus in culture; type: cell-based; settings: MHB; for MIC: Bacillus cereus, ATCC10876, value in brackets, WST colorimetric, 37 °C 6 h + 2 h, triplicate, read-out: Minimum Inhibitory Concentration; for Minimum Inhibitory Concentration: Microbial Viability Assay Kit-WST, 1.5 × 10^5 CFU/well, 37 °C 6 h + 2 h coloring reagent, A450, triplicate
# Procedure: (§1) The antibacterial activities of the chemically synthesized peptides were evaluated against a panel of bacteria consisting of 6 Gram-negative strains, including E. coli ATCC 25922 (American Type Culture Collection, Manassas, VA, USA), P. aeruginosa ATCC 27853, S. Typhimurium ATCC 14028, A. baumannii KCTC (Korean Collection for Type Cultures, Jeongeup, Korea) 23254, K. pneumoniae KCTC 1726, and E. cloacae ATCC 13047, and 6 Gram-positive strains, including S. aureus ATCC 6538, B. cereus ATCC 10876, E. faecalis ATCC 29212, S. agalactiae ATCC 27956, S. dysgalactiae ATCC 27957, and S. equi ATCC 43079. Ampicillin (Sigma-Aldrich, St. Louis, MO, USA), chloramphenicol (Sigma-Aldrich), and gentamicin sulfate (Sigma-Aldrich) were used as controls for antibacterial activity. The MIC was determined by a colorimetric method using the Microbial Viability Assay Kit-WST (Dojindo, Kumamoto, Japan) according to the manufacturer’s manual and the Clinical and Laboratory Standards Institute (CLSI) guidelines (2018). Four colonies of each bacterium were inoculated into 5 mL of Luria-Bertani (LB) broth medium (BD Bioscience, Franklin Lakes, NJ, USA) or brain heart infusion broth (BHIB; BD Bioscience) at 37 °C for 6 h with shaking at 220 rpm. E. faecalis and streptococci were cultured in BHIB because of their slow growth, whereas all other bacteria were cultured in LB medium. The cells were washed by sterile saline (0.9% NaCl) twice and adjusted in a single well of a 96-well plate at a cell density of 1.5 × 10^5 CFU/well in accordance with 0.5 McFarland standard. Subsequently, 180 µL/well of fresh Mueller-Hinton broth (MHB; BD Bioscience), except for E. faecalis and streptococci using BHIB was added to the plate using BHIB. Final concentrations of 1–40 µg/mL (0.3–19.3 μM) of each peptide and reference antibiotic were added to each well. The plates were then incubated at 37 °C for 6 h. Subsequently, 10 µL of the coloring reagent was added, and the mixture was incubated at 37 °C for 2 h. The absorbance of each well was measured at 450 nm using a microplate spectrophotometer (Bio-Rad, xMark spectrophotometer, Hercules, CA, USA). MIC values were determined when the difference in the absorbance values between treatments and blanks (media and coloring reagent only) was less than 0.05. Experiments were performed in triplicate.
# [2] = system: Enterobacter cloacae subsp. cloacae ATCC 13047; assay: microbe, parasite or virus in culture; type: cell-based; settings: MHB; for MIC: Enterobacter cloacae, ATCC13047, value in brackets, WST colorimetric, 37 °C 6 h + 2 h, triplicate, read-out: Minimum Inhibitory Concentration; for Minimum Inhibitory Concentration: Microbial Viability Assay Kit-WST, 1.5 × 10^5 CFU/well, 37 °C 6 h + 2 h coloring reagent, A450, triplicate
# Procedure: as §1
# [3] = system: Streptococcus agalactiae ATCC 27956; assay: microbe, parasite or virus in culture; type: cell-based; settings: BHIB; for Minimum Inhibitory Concentration: Microbial Viability Assay Kit-WST, 1.5 × 10^5 CFU/well, 37 °C 6 h + 2 h coloring reagent, A450, triplicate; for MIC: Streptococcus agalactiae, ATCC27956, value in brackets, WST colorimetric, 37 °C 6 h + 2 h, triplicate, read-out: Minimum Inhibitory Concentration
# Procedure: as §1
# [4] = system: Staphylococcus aureus ATCC 6538; assay: microbe, parasite or virus in culture; type: cell-based; settings: MHB; for Minimum Inhibitory Concentration: Microbial Viability Assay Kit-WST, 1.5 × 10^5 CFU/well, 37 °C 6 h + 2 h coloring reagent, A450, triplicate; for MIC: Staphylococcus aureus, ATCC6538, value in brackets, WST colorimetric, 37 °C 6 h + 2 h, triplicate, read-out: Minimum Inhibitory Concentration
# Procedure: as §1
# [5] = system: Klebsiella pneumoniae subsp. pneumoniae KCTC 1726; assay: microbe, parasite or virus in culture; type: cell-based; settings: MHB; for MIC: Klebsiella pneumoniae, KCTC1726, read-out: Minimum Inhibitory Concentration
# Procedure: as §1
# [6] = system: Salmonella enterica serovar Typhimurium ATCC 14028; assay: microbe, parasite or virus in culture; type: cell-based; settings: MHB; for Minimum Inhibitory Concentration: Microbial Viability Assay Kit-WST, 1.5 × 10^5 CFU/well, 37 °C 6 h + 2 h coloring reagent, A450, triplicate; for MIC: Salmonella enterica, value in brackets, WST colorimetric, 37 °C 6 h + 2 h, triplicate, read-out: Minimum Inhibitory Concentration
# Procedure: as §1
# [7] = system: Streptococcus dysgalactiae ATCC 27957; assay: microbe, parasite or virus in culture; type: cell-based; settings: BHIB; for Minimum Inhibitory Concentration: Microbial Viability Assay Kit-WST, 1.5 × 10^5 CFU/well, 37 °C 6 h + 2 h coloring reagent, A450, triplicate; for MIC: Streptococcus dysgalactiae, ATCC27957, value in brackets, WST colorimetric, 37 °C 6 h + 2 h, triplicate, read-out: Minimum Inhibitory Concentration
# Procedure: as §1
# [8] = system: Escherichia coli ATCC 25922; assay: microbe, parasite or virus in culture; type: cell-based; settings: MHB; for MIC: Escherichia coli, ATCC25922, 8 h, value in brackets, WST colorimetric, 37 °C 6 h + 2 h, triplicate, read-out: Minimum Inhibitory Concentration; for Minimum Inhibitory Concentration: Microbial Viability Assay Kit-WST, 1.5 × 10^5 CFU/well, 37 °C 6 h + 2 h coloring reagent, A450, triplicate
# Procedure: as §1
# [9] = system: Streptococcus equi subsp. zooepidemicus ATCC 43079; assay: microbe, parasite or virus in culture; type: cell-based; settings: BHIB; for Minimum Inhibitory Concentration: Microbial Viability Assay Kit-WST, 1.5 × 10^5 CFU/well, 37 °C 6 h + 2 h coloring reagent, A450, triplicate; for MIC: Streptococcus equi, ATCC43079, value in brackets, WST colorimetric, 37 °C 6 h + 2 h, triplicate, read-out: Minimum Inhibitory Concentration
# Procedure: as §1
# [10] = system: Pseudomonas aeruginosa ATCC 27853; assay: microbe, parasite or virus in culture; type: cell-based; settings: MHB; for Minimum Inhibitory Concentration: Microbial Viability Assay Kit-WST, 1.5 × 10^5 CFU/well, 37 °C 6 h + 2 h coloring reagent, A450, triplicate; for MIC: Pseudomonas aeruginosa, ATCC27853, value in brackets, WST colorimetric, 37 °C 6 h + 2 h, triplicate, read-out: Minimum Inhibitory Concentration
# Procedure: as §1
# [11] = system: Enterococcus faecalis ATCC 29212; assay: microbe, parasite or virus in culture; type: cell-based; settings: BHIB; for MIC: Enterococcus faecalis, ATCC29212, value in brackets, WST colorimetric, 37 °C 6 h + 2 h, triplicate, read-out: Minimum Inhibitory Concentration; for Minimum Inhibitory Concentration: Microbial Viability Assay Kit-WST, 1.5 × 10^5 CFU/well, 37 °C 6 h + 2 h coloring reagent, A450, triplicate
# Procedure: as §1
# [12] = system: Acinetobacter baumannii KCTC 23254; assay: microbe, parasite or virus in culture; type: cell-based; settings: MHB; for MIC: Acinetobacter baumannii, KCTC23254, value in brackets, WST colorimetric, 37 °C 6 h + 2 h, triplicate, read-out: Minimum Inhibitory Concentration; for Minimum Inhibitory Concentration: Microbial Viability Assay Kit-WST, 1.5 × 10^5 CFU/well, 37 °C 6 h + 2 h coloring reagent, A450, triplicate
# Procedure: as §1
# [13] = system: panel of 12 reference bacteria, comprised of 6 Gram-negative strains and 6 Gram-positive strains; type: cell-based; settings: 6 h
# Procedure: as §1
# [14] = system: HaCaT cells; assay: In vitro cytotoxicity assay, WST-1 cell viability; type: cell-based, Human
# Procedure: HaCaT cells were cultured in Dulbecco’s modified Eagle’s medium (DMEM; Hyclone^TM, Logan, UT, USA) with 10% fetal bovine serum (FBS; Hyclone^TM) and 1% penicillin/streptomycin (Pen-Strep; Hyclone^TM) up to 80% confluence at 37 ℃ and 5% CO2. Cells were detached from the plate by adding 0.25% trypsin-EDTA solution (Gibco^TM; Carlsbad, CA, USA). In a 96-well plate, 2 × 10^4 cells were seeded per well and cultured for 24 h. Subsequently, the medium was replaced with 100 μL DMEM (Hyclone^TM) containing 10% heat-inactivated FBS. Peptides were added to each well at concentrations of 64 μg/mL and 160 μg/mL. As references for complete cell lysis, 64 μg/mL melittin (Sigma-Aldrich) and Triton X-100 (Sigma-Aldrich) were used. Untreated cells were used as negative controls. After 24 h incubation at 37 ℃ and 5 % CO2, 10 μL of coloring solution (Cell Proliferation Reagent WST-1^TM; Sigma Aldrich) was added to each well according to the manufacturer’s instructions. The absorbance at 450 nm (treated group and control) and 650 nm (background) was measured in each well using a microplate reader (xMarkTM spectrophotometer; Bio-Rad). The cell viability was calculated using the following equation. All experiments were performed in triplicate. Cell viability (%) = 100 × (OD (treated group) − OD(Background))/(OD (negative control) − OD (Background))(2)
# [15] = value in brackets, WST colorimetric, 37 °C 6 h + 2 h, triplicate
# [16] = Microbial Viability Assay Kit-WST, 1.5 × 10^5 CFU/well, 37 °C 6 h + 2 h coloring reagent, A450, triplicate
Compound,MIC [1] [µM],Minimum Inhibitory Concentration [1] [µg/mL],MIC [2] [µM],Minimum Inhibitory Concentration [2] [µg/mL],Minimum Inhibitory Concentration [3] [µg/mL],MIC [3] [µM],Minimum Inhibitory Concentration [4] [µg/mL],MIC [4] [µM],"MIC [5, 15] [µM]",Minimum Inhibitory Concentration [6] [µg/mL],MIC [6] [µM],Minimum Inhibitory Concentration [7] [µg/mL],MIC [7] [µM],MIC [8] [µM],Minimum Inhibitory Concentration [8] [µg/mL],Minimum Inhibitory Concentration [9] [µg/mL],MIC [9] [µM],Minimum Inhibitory Concentration [10] [µg/mL],MIC [10] [µM],MIC [11] [µM],further results
CC1(C)S[C@@H]2[C@H](NC(=O)[C@H](N)c3ccccc3)C(=O)N2[C@H]1C(=O)O [Ampicillin],229,80,> 229,> 80,4,11.4,2,5.7,> 229,> 80,> 229,2,5.7,14.3,5,2,5.7,> 640,> 1830,28.6,"Minimum Inhibitory Concentration [5, 16]: > 80 µg/mL; Minimum Inhibitory Concentration [11]: 10 µg/mL; MIC [12]: > 229 µM; Minimum Inhibitory Concentration [12]: > 80 µg/mL"
"CNC(C)C1CCC(N)C(OC2C(N)CC(N)C(OC3OCC(C)(O)C(NC)C3O)C2O)O1 (stereo not drawn) [Gentamicin, gentamicin sulfate]",2.1,1,2.1,1,75,158,1,2.1,39.8,1,2.1,15,31.5,2.1,1,45,94.5,1,2.1,189,"MIC [5, 16]: 19 µg/mL; Minimum Inhibitory Concentration [11]: 90 µg/mL; MIC [12]: 21 µM; Minimum Inhibitory Concentration [12]: 10 µg/mL"
O=C(N[C@H](CO)[C@H](O)c1ccc([N+](=O)[O-])cc1)C(Cl)Cl [chloramphenicol],31,10,15.5,5,5,15.5,7.5,23.2,> 248,5,15.5,4,12.4,9.3,3,5,15.5,80,248,31,"Minimum Inhibitory Concentration [5, 16]: > 80 µg/mL; Minimum Inhibitory Concentration [11]: 10 µg/mL; MIC [12]: 118 µM; Minimum Inhibitory Concentration [12]: 38 µg/mL"
GIFILKHRRPIGRGIEIT [ΔML-CATH],,,,,,,,,,,,,,,,,,,,,MIC (no observable antibacterial activity) [13]: > 13.7 µM
IAGRIAGKLIGDAINRHRERNRQRR [ΔPD-CATH],,,,,,,,,,,,,,,,,,,,,MIC (no observable antibacterial activity) [13]: > 13.7 µM
ILGPALRIGGRIAGRIAGKLIGDAINRHRERNRQRRG [PD-CATH],,,,,,,,,,,,,,,,,,,,,"MIC, range over strains [13]: 0.7 to 7.3 µM; concentration at which the viability of human keratinocyte was affected [14]: 160 µg/mL"
ILGRLRDLLRRGGRKIGQGLERIGQRIQGFFSNREPMEES [HA-CATH],,,,,,,,,,,,,,,,,,,,,"MIC, range over strains [13]: 1.1 to 7.3 µM"
LLRRGGRKIGQGLERIGQRIQGF [ΔHA-CATH],,,,,,,,,,,,,,,,,,,,,MIC (no observable antibacterial activity) [13]: > 13.7 µM
LNPLIKAGIFILKHRRPIGRGIEITGRGIKKFFSK [ML-CATH],,,,,,,,,,,,,,,,,,,,,"MIC, range over strains [13]: 0.3 to 8.8 µM; MICs, range [13]: 0.5 to 0.8 µM"
Triton X-100,,,,,,,,,,,,,,,,,,,,,Cell Viability ± SD [14]: 8.9 ± 0.05 %
